According to patent US12178842B2, “PCSK9 antagonist compounds” (MERCK SHARP & DOHME LLC, priority 2019, dated 2024):

Experiments:
Assay type in all cases: binding
PCSK9 [1] = target: T1, PCSK9 (Homo sapiens, UniProt Q8NBP7); assay: PCSK9 Alexa FRET Standard TR-FRET assay; conditions: Ki calculated from IC50 and KD of AF cyclic peptide Reagent A; 0.5 nM PCSK9, 20 nM AF cyclic peptide; read-out: Alexa FRET Stdt TR-FRET
T1 construct: biotin (biotinylated); purchased
Protocol: A solution containing 1 nM biotinylated PCSK9+2.5 nM Lance Streptavidin Europium (Strep-Eu) is made in 50 mM HEPES pH 7.4, 0.15 M NaCl, 5 mM CaCl2, 0.01% BSA, and 0.01% Surfactant P20. A separate solution containing 40 nM of the AlexaFluor tagged cyclic peptide is made in the same buffer system. An Echo is used to transfer 0.750 ul of compound to an assay plate followed by the addition of 15 ul of PCSK9+Stept-Eu and 15 ul of AF peptide. The final assay volume is 30.750 ul containing 0.5 nM PCSK9, 1.25 nM Strep-Eu, and 20 nM AF cyclic peptide. The reaction is incubated at room temperature for at least two hours prior to fluorescence measurements using an Envision Multilabel Reader. IC50 values are determined by fitting data to a sigmoidal dose-response curve using nonlinear regression. Ki is then calculated from the Ic50 and the KD of AF cyclic peptide. Counts (B-counts) of the europium-labeled PCSK9 are followed to observe if compounds are adversely PCSK9. A fall off of the B-counts likely indicates a false positive of inhibition. Data from this procedure is reported as “A=‘numerical value’ (nanomolar)”

PCSK9 [2] = target: T1, PCSK9; assay: PCSK9 Alexa FRET Plus TR-FRET assay
Protocol: A separate solution containing 1920 nM of the AlexaFluor tagged cyclic peptide is made in the same buffer system. […] The reaction is incubated at room temperature for at least two hours prior to fluorescence measurements using an Envision Multilabel Reader. IC50 values are determined by fitting data to a sigmoidal dose-response curve using nonlinear regression. Ki is then calculated from the Ic50 and the KD of AF cyclic peptide. Counts (B-counts) of the europium-labeled PCSK9 are followed to observe if compounds are adversely affecting PCSK9. A fall off of the B-counts is likely indicates a false positive of inhibition. Data from this procedure is reported as “P=‘numerical value’ (nanomolar)”

PCSK9 [3] = target: T1, PCSK9; assay: PCSK9 Alexa FRET Ultra TR-FRET assay
Protocol: A separate solution containing 1920 nM of the AlexaFluor tagged cyclic peptide is made in the same buffer system. […] The reaction is incubated at room temperature for at least two hours prior to fluorescence measurements using an Envision Multilabel Reader. IC50 values are determined by fitting data to a sigmoidal dose-response curve using nonlinear regression. Ki is then calculated from the Ic50 and the KD of AF cyclic peptide. Counts (B-counts) of the europium-labeled PCSK9 are followed to observe if compounds are adversely affecting PCSK9. A fall off of the B-counts is likely indicates a false positive of inhibition. Data from this procedure is reported as “Ki Ultra=‘numerical value’ (data reported is nanomolar)”

[4] = Ki calculated from IC50 and KD of AF cyclic peptide Reagent B, 0.5 nM PCSK9, 960 nM AF cyclic peptide, read-out: Alexa FRET Plus TR-FRET
[5] = Ki Ultra, calculated from IC50 and KD of AF cyclic peptide, 0.5 nM PCSK9, 960 nM AF cyclic peptide, read-out: Alexa FRET Ultra TR-FRET

T1 sequence (Q8NBP7 153-692): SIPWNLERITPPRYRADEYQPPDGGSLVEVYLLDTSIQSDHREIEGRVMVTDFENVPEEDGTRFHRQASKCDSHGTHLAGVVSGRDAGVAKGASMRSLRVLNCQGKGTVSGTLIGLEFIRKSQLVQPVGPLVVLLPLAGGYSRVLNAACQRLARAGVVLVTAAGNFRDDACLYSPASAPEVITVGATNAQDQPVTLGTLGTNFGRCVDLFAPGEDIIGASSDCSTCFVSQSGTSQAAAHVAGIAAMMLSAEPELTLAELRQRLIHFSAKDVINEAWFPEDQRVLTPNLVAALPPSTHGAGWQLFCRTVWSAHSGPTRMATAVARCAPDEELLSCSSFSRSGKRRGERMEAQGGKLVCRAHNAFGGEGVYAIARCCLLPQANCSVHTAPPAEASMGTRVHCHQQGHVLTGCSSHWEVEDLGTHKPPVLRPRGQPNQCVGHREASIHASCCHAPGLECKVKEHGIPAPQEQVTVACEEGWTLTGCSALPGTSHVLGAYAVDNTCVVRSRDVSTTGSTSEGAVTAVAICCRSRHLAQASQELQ

Compound | Ki (PCSK9 [1]) [pM] | Ki (PCSK9 [2]; [4]) [pM] | Ki (PCSK9 [3]; [5]) [pM] | Ki (PCSK9 [2]) [pM] | Ki (PCSK9 [3]) [pM]
COc1ccc(C[C@@H]2NC(=O)[C@H]([C@@H](C)O)NC(=O)[C@@H]3[C@@H]4CCN3C(=O)[C@@H]3Cc5cn(c6ccc(F)cc56)CCCCCCN(Cc5ccc(cc5)CCNC(=O)[C@]5(C)CCCN5C2=O)C(=O)CCC(=O)N[C@@H](C)C(=O)N[C@H](CNC(=O)CCOCCOCC[N+](C)(C)CCNC(=O)CCOCCOCC[N+](C)(C)CCNC(=O)COCCOCCNC(=O)COCCOCCNC(=O)CC[C@H](NC(=O)CC[C@H](NC(=O)CCCCCCCCCCCCCCC(=O)O)C(=O)O)C(=O)O)C(=O)N[C@@H](Cc2cccc(c2)CNC(=O)CO4)C(=O)N3)cc1 [Ex-11] | < 1260 | 7 | 6 |  | 
COC(=O)CCCCCCCCCCCCCCCCC(=O)N[C@@H](CCC(=O)NCCOCCOCC(=O)NCCOCCOCC(=O)NCC[N+](C)(C)CCCCCC(=O)NC[C@H]1NC(=O)[C@H](C)NC(=O)CCC(=O)N2CCCCCCn3cc(c4cc(F)ccc43)C[C@@H]3NC(=O)[C@H](Cc4cccc(c4)CNC(=O)CO[C@H]4CCN(C3=O)[C@@H]4C(=O)N[C@@H]([C@@H](C)O)C(=O)N[C@@H](Cc3ccc(OC)cc3)C(=O)N3CCC[C@@]3(C)C(=O)NCCc3ccc(cc3)C2)NC1=O)C(=O)OC [Ex-12] | < 1260 | 14 | 7 |  | 
COc1ccc(C[C@@H]2NC(=O)[C@H]([C@@H](C)O)NC(=O)[C@@H]3[C@@H]4CCN3C(=O)[C@@H]3Cc5cn(c6ccc(F)cc56)CCCCCCN(Cc5ccc(cc5)CCNC(=O)[C@]5(C)CCCN5C2=O)C(=O)CCC(=O)N[C@@H](C)C(=O)N[C@H](CNC(=O)COCCOCC[N+](C)(C)CCOCCNC(=O)COCCOCCNC(=O)COCCOCCNC(=O)CC[C@H](NC(=O)CC[C@H](NC(=O)CCCCCCCCCCCCCCCCC(=O)O)C(=O)O)C(=O)O)C(=O)N[C@@H](Cc2cccc(c2)CNC(=O)CO4)C(=O)N3)cc1 [Ex-13] | < 1260 | < 6 | 3 |  | 
COc1ccc(C[C@@H]2NC(=O)[C@H]([C@@H](C)O)NC(=O)[C@@H]3[C@@H]4CCN3C(=O)[C@@H]3Cc5cn(c6ccc(F)cc56)CCCCCCN(Cc5ccc(cc5)CCNC(=O)[C@]5(C)CCCN5C2=O)C(=O)CCC(=O)N[C@@H](C)C(=O)N[C@H](CNC(=O)CCC[N+](C)(C)CCNC(=O)COCCOCCNC(=O)CC[C@H](NC(=O)CC[C@H](NC(=O)CCCCCCCCCCCCCCCCC(=O)O)C(=O)O)C(=O)O)C(=O)N[C@@H](Cc2cccc(c2)CNC(=O)CO4)C(=O)N3)cc1 [Ex-14] | < 1260 |  |  | < 6 | 5
COc1ccc(C[C@@H]2NC(=O)[C@H]([C@@H](C)O)NC(=O)[C@@H]3[C@@H]4CCN3C(=O)[C@@H]3Cc5cn(c6ccc(F)cc56)CCCCCCN(Cc5ccc(cc5)CCNC(=O)[C@]5(C)CCCN5C2=O)C(=O)CCC(=O)N[C@@H](C)C(=O)N[C@H](CNC(=O)CCOCCOCC[N+](C)(C)CCNC(=O)COCCOCCNC(=O)COCCOCCNC(=O)C[C@H](NC(=O)CCCCCCCCCCCCCCCCC(=O)O)C(=O)O)C(=O)N[C@@H](Cc2cccc(c2)CNC(=O)CO4)C(=O)N3)cc1 [Ex-15] | < 1260 |  |  | < 6 | 5
COc1ccc(C[C@@H]2NC(=O)[C@H]([C@@H](C)O)NC(=O)[C@@H]3[C@@H]4CCN3C(=O)[C@@H]3Cc5cn(c6ccc(F)cc56)CCCCCCN(Cc5ccc(cc5)CCNC(=O)[C@]5(C)CCCN5C2=O)C(=O)CCC(=O)N[C@@H](C)C(=O)N[C@H](CNC(=O)CCOCCOCC[N+](C)(C)CCNC(=O)COCCOCCNC(=O)COCCOCCNC(=O)CC(CC(=O)O)NC(=O)CC[C@H](NC(=O)CCCCCCCCCCCCCCCCC(=O)O)C(=O)O)C(=O)N[C@@H](Cc2cccc(c2)CNC(=O)CO4)C(=O)N3)cc1 (stereo partly drawn) [Ex-16] | < 1260 |  |  | 14 | 8
COc1ccc(C[C@@H]2NC(=O)[C@H]([C@@H](C)O)NC(=O)[C@@H]3[C@@H]4CCN3C(=O)[C@@H]3Cc5cn(c6ccc(F)cc56)CCCCCCN(Cc5ccc(cc5)CCNC(=O)[C@]5(C)CCCN5C2=O)C(=O)CCC(=O)N[C@@H](C)C(=O)N[C@H](CN(CCC[N+](C)(C)C)C(=O)COCCOCCNC(=O)COCCOCCNC(=O)CC[C@H](NC(=O)CCCCCCCCCCCCCCCCC(=O)O)C(=O)O)C(=O)N[C@@H](Cc2cccc(c2)CNC(=O)CO4)C(=O)N3)cc1 [Ex-17] | < 1260 | 16 | 18 |  | 
